Laboratory results: US7183054B2, “Assay for identifying biological targets of polynucleotide-binding compounds” (President and Fellows of Harvard College, priority 2003, dated 2007)

Key:
Human erythrocyte GAPDH = molecular target: T1, Human erythrocyte GAPDH (Homo sapiens, UniProt P04406); experiment: Southwestern blot of GAPDH with 32P-labeled dsDNA-drug complexes; type: binding; details: membrane probed with 32P labeled DNA alkylated with drug
T1 construct: Human erythrocyte GAPDH (Sigma 6019) was dissovled in ddH2O; purchased Sigma 6019 (G6019); host or cells: human erythrocytes
Procedure: FIG. 5 depicts the Southwestern blot technique using GAPDH and saframycins. FIG. 5A is a schematic of the Southwestern blot technique. […] The membranes with GAPDH were incubated with the various ^32P-labeled dsDNA-drug complexes. Lane 1: free dsDNA control; Lane 2: HQ alkylated dsDNA; Lane 3: QAD alkylated dsDNA; Lane 4: Pt 650 alkylated dsDNA; Lane 5: SafA alkylated dsDNA.
(§1) Construction of Drug-based Affinity Resin. The amino-modified QAD and its hemiaminal derivative, amino-modified HQ was prepared by coupling SafA synthetic intermediate^11 with 6-(4-Fmoc-amino-n-butoxy)-quinaldic acid followed by Fmoc deprotection. The amino-modified QAD/HQ was purified by reverse-phase HPLC and coupled to AffiGel-15. […] The amount of drug coupled to the affinity resin was determined by quantifying the drug that remained in the supernatant using reverse-phase HPLC. […] The supernatant solution was analyzed by reverse-phase HPLC. The amount of ds-oligonucleotide detected in the supernatant from the heating step was taken to be the amount of ds-oligonucleotide coupled to drug on the affinity resin in the form of stable dsDNA-drug binary complex. […] The concentration of double-stranded 21-mer DNA on the resin was determined by heat denaturing the double strand DNA on a known amount of resin and subsequently determining the concentration of complementary strand in free solution by UV spectrometry. […]

A375 melanoma = A375 melanoma tumor cell line; cited from earlier work
GAPDH [1] = molecular target: T2, GAPDH (Bos taurus, UniProt P10096); experiment: Affinity chromatography with drug-alkylated dsDNA resin in bovine brain lysate (GAPDH); type: binding; details: ds-oligonucleotide resin alkylated with drug; bovine brain lysate, 4° C.; silver-stained SDS-PAGE
T2 construct: from tissue; host or cells: bovine brain homogenate

GAPDH [2] = experiment: as above; type: binding; details: summary statement
A549 lung carcinoma = A549 lung carcinoma tumor cell line; cited from earlier work
HMG1 = molecular target: T3, HMG1 (Bos taurus, UniProt P10103); experiment: Affinity chromatography with drug-alkylated dsDNA resin in bovine brain lysate (HMG1); type: binding; details: ds-oligonucleotide resin alkylated with drug; pre-cleared bovine brain lysate
T3 construct: from tissue; host or cells: bovine brain homogenate
T3 sequence (P10103 1-215): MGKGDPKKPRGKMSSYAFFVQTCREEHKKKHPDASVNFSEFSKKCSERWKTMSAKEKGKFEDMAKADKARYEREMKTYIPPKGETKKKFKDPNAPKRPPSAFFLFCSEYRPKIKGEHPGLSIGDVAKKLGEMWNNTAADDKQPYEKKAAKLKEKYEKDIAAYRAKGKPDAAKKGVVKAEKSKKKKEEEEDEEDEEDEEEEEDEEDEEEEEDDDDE
Procedure: FIG. 4 is a photograph of a silver-stained SDS-PA gel showing the affinity chromatography results. The affinity matrix was incubated in bovine brain lysate at 4° C., washed extensively, and heat denatured to release bound proteins. […]
as §1, with “Resin.” for “Resin. The amino-modified QAD and its hemiaminal derivative, amino-modified HQ was prepared by coupling SafA synthetic intermediate^11 with 6-(4-Fmoc-amino-n-butoxy)-quinaldic acid followed by Fmoc deprotection. The amino-modified QAD/HQ was purified by reverse-phase HPLC and coupled to AffiGel-15.”

A549 cells = experiment: GI50 in GAPDH siRNA transfected A549 cells (MTS); type: cell-based; details: 72 hours drug exposure

T2 sequence (P10096 2-333): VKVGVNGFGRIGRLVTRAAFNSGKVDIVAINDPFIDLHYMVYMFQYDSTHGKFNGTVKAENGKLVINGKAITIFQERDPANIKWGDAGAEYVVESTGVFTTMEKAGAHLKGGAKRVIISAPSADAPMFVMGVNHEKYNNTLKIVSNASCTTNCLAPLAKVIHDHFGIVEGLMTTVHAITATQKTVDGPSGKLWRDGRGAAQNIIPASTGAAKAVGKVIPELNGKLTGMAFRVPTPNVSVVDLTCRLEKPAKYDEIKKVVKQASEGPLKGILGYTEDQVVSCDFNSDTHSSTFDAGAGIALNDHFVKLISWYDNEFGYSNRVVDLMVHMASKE
T1 sequence (P04406 whole entry): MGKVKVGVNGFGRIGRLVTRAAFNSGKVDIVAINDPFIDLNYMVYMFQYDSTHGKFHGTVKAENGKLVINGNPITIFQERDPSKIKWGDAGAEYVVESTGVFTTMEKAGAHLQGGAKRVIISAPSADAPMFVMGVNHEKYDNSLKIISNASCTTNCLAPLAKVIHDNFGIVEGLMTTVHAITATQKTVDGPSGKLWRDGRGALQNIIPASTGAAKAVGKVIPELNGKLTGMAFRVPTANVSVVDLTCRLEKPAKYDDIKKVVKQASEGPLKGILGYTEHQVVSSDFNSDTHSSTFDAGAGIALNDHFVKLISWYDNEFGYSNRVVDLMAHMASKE

Compound | radioactivity at GAPDH protein band (Human erythrocyte GAPDH) | IC50 (A375 melanoma) | binding of 37-kDa protein (GAPDH) to drug-dsDNA binary complex (GAPDH [1]) | cellular target found (GAPDH [2]) | IC50 (A549 lung carcinoma) | binding of 31-kDa protein (HMG1) to drug-dsDNA binary complex (HMG1) | GI50 change in GAPDH siRNA transfected cells vs control siRNA (A549 cells) | GI50 change in GAPDH siRNA transfected cells vs control siRNA (A549 cells; listed as cis-platin)
COC1=C(C)C(=O)C2=C(C1=O)[C@@H]1[C@@H]3CC4=C(C(=O)C(OC)=C(C)C4=O)[C@H](CNC(=O)C(C)=O)N3[C@@H](C#N)[C@H](C2)N1C [(−)-Saframycin A] | radioactivity was detected | 5.3 nM | bind specifically | target cellular GAPDH | 133 nM | – | – | –
COc1cc2c(cc1O)CCN[C@]21CS[C@@H]2c3c(OC(C)=O)c(C)c4c(c3[C@H](COC1=O)N1[C@@H]2[C@H]2c3c(cc(C)c(OC)c3O)C[C@@H]([C@@H]1O)N2C)OCO4 [Ecteinascidin 743] | – | 0.15 nM | – | target cellular GAPDH | 1 nM | – | – | –
COc1c(C)cc2c(c1O)[C@@H]1[C@@H]3Cc4c(OC(C)=O)c(C)c5c(c4[C@H](CN4C(=O)c6ccccc6C4=O)N3[C@@H](C#N)[C@H](C2)N1C)OCO5 [Pt 650, phthalascidin] | radioactivity was detected | – | bind specifically | – | – | – | – | –
N.N.[Cl][Pt][Cl] [cisplatin] | – | – | did not bind | – | – | bind specifically | nearly the same sensitivity | unchanged
N.N.[Cl][Pt+2][Cl] [transplatin] | – | – | did not bind | – | – | did not recruit any protein | – | –
